Results as given in EP2402357B1, “Analogs of 2',3'-dideoxy-3'-fluorothymidine 5'-monophosphate (FLTMP) for use in the treatment of infections caused by human HIV-1 strains” (priority 2010, dated 2012).
Structures can show the parent of a compound that is named as a salt.

What was measured:
Test in all cases: Antiviral activity in deCIPhR cellular system (replicative phenotyping, β-galactosidase indicator cell line)
Type in all cases: cell-based
Conditions in all cases: Human immunodeficiency virus 1
HIV-1 mutant GQ (MDR) = test system: HIV-1 mutant GQ (MDR)
Excerpt: (§1) Fully infectious virus HIV-1 was produced from cloned proviral DNA reference coding either for wild-type HIV-1 or from drug-resistant virus following transfection of proviral DNA into recipient mammalian cells. Subsequent to viral protein expression and particle formation, culture supernatant was harvested and used to infect an indicator cell line. This latter cell line expresses all necessary receptors and co-receptors for HIV infection as well as the bacterial gene LacZ coding for β-galactosidase under the control of the HIV-1 long terminal repeat. In this system, amount of β-galactosidase is directly proportional to the extent of viral replication. Activity of β-galactosidase is assayed in presence of a colorless substrate which upon enzymatic conversion yields a yellow product absorbing at 405 nm. Next, variation in colorimetric readout in presence of test compounds was translated in percent viral inhibition following normalization according to absorbance values of positive (presence of anti-HIV drug) and negative (untreated) control wells included in each 96 well-plate. For determining effective concentration 50 % (EC50), test compounds were assayed across a range of concentrations. Percent inhibition data in function of drug concentration were processed by a statistical curve fitting software yielding a modeled curve from which EC50 was extrapolated.

HIV-1 mutant M184V = test system: HIV-1 mutant M184V
Excerpt: as §1

HIV-1 wild type pNL4-3 = test system: HIV-1 wild type pNL4-3
Excerpt: as §1

HIV-1 mutant K65R = test system: HIV-1 mutant K65R
Excerpt: as §1

HIV-1 mutant M4 = test system: HIV-1 mutant M4
Excerpt: as §1

HIV-1 mutant K103N = test system: HIV-1 mutant K103N
Excerpt: as §1

Cc1cn([C@H]2C[C@H](F)[C@@H](CO)O2)c(=O)[nH]c1=O [FLT, 2',3'-Dideoxy-3'-fluorothymidine]
EC50 (HIV-1 mutant GQ (MDR)): 131 nM
EC90 (HIV-1 mutant GQ (MDR)): 1300 nM
EC50 (HIV-1 mutant M184V): 27 nM
EC90 (HIV-1 mutant M184V): 119 nM
EC50 (HIV-1 wild type pNL4-3): 21 nM
EC90 (HIV-1 wild type pNL4-3): 210 nM
EC50 (HIV-1 mutant K65R): 32 nM
EC90 (HIV-1 mutant K65R): 96 nM
EC50 (HIV-1 mutant M4): 16 nM
EC90 (HIV-1 mutant M4): 118 nM
EC50 (HIV-1 mutant K103N): 18 nM
EC90 (HIV-1 mutant K103N): 71 nM

Cc1cn([C@H]2C[C@H](F)[C@@H](COP(=O)(O)O)O2)c(=S)[nH]c1=O [Example 2-SFLTMP, 1-(2-deoxy-3-fluoro-β-D-ribofuranosyl)-2-thiothymine 5'-monophosphate disodium salt]
EC50 (HIV-1 mutant GQ (MDR)): 2850 nM
EC90 (HIV-1 mutant GQ (MDR)): 4530 nM
EC50 (HIV-1 mutant M184V): 144 nM
EC90 (HIV-1 mutant M184V): 3260 nM
EC50 (HIV-1 wild type pNL4-3): 224 nM
EC90 (HIV-1 wild type pNL4-3): 2580 nM
EC50 (HIV-1 mutant K65R): 504 nM
EC90 (HIV-1 mutant K65R): 4340 nM
EC50 (HIV-1 mutant M4): 392 nM
EC90 (HIV-1 mutant M4): 3680 nM
EC50 (HIV-1 mutant K103N): 114 nM
EC90 (HIV-1 mutant K103N): 978 nM

Cc1cn([C@H]2C[C@H](F)[C@@H](COP(=O)(O)O)O2)c(=O)[nH]c1=S [Example 4-SFLTMP, 1-(2-deoxy-3-fiuoro-β-D-ribofuranosyl)-4-thiothymine 5'-monophosphate disodium salt]
EC50 (HIV-1 mutant GQ (MDR)): 48 nM
EC90 (HIV-1 mutant GQ (MDR)): 1800 nM
EC50 (HIV-1 mutant M184V): 43 nM
EC90 (HIV-1 mutant M184V): 425 nM
EC50 (HIV-1 wild type pNL4-3): 24 nM
EC90 (HIV-1 wild type pNL4-3): 166 nM
EC50 (HIV-1 mutant K65R): 96 nM
EC90 (HIV-1 mutant K65R): 338 nM
EC50 (HIV-1 mutant M4): 31 nM
EC90 (HIV-1 mutant M4): 381 nM
EC50 (HIV-1 mutant K103N): 11 nM
EC90 (HIV-1 mutant K103N): 50 nM
